The source of these data is ChEMBL document CHEMBL1129539, “2,4-diamino-5-deaza-6-substituted pyrido[2,3-d]pyrimidine antifolates as potent and selective nonclassical inhibitors of dihydrofolate reductases” (J Med Chem, 1996).

In experiment [1] the target is T1, Dihydrofolate reductase (Pneumocystis carinii, UniProt P16184).
T1 sequence (P16184 whole entry): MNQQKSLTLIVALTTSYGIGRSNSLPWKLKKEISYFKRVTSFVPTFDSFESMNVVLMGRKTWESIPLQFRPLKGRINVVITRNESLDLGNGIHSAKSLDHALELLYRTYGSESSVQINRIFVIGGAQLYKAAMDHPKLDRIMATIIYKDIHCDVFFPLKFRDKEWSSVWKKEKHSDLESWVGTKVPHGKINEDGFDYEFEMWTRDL
Description: Inhibitory activity against Pneumocystis carinii dihydrofolate reductase (in 90 uM dihydrofolic acid)

Experiment [2] concerns the target T2, Bifunctional dihydrofolate reductase-thymidylate synthase (Toxoplasma gondii, UniProt Q07422).
T2 sequence (Q07422 whole entry): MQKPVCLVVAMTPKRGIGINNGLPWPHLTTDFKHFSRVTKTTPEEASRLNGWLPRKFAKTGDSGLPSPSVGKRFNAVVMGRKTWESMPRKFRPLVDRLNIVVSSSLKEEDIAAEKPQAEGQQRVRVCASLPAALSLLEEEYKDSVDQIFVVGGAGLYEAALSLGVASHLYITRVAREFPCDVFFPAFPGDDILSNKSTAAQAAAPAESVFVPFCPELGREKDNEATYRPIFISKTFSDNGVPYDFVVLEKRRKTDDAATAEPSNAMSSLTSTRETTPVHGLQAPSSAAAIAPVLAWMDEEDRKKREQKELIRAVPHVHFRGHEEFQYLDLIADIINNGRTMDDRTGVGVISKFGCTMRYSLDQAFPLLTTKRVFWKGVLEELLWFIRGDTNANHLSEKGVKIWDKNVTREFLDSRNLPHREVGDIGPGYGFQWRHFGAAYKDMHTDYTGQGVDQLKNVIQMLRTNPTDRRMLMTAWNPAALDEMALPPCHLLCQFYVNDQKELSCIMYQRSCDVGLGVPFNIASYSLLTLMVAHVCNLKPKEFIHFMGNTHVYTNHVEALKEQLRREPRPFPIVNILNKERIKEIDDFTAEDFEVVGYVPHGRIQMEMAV
Description: Inhibitory activity against Toxoplasma gondii dihydrofolate reductase (in 90 uM dihydrofolic acid)

The target of experiment [3] is T3, Dihydrofolate reductase (Rattus norvegicus, UniProt Q920D2).
T3 sequence (Q920D2 whole entry): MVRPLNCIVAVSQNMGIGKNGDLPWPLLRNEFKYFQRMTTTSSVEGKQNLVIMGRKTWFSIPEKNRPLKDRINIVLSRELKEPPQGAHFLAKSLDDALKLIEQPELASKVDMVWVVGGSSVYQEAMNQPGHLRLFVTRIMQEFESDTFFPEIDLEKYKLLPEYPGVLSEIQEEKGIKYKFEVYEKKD
Description: Inhibitory activity against rat liver dihydrofolate reductase (in 90 uM dihydrofolic acid)

Experiment [4] concerns the target T2, Bifunctional dihydrofolate reductase-thymidylate synthase. The source holds these as a separate data set.
Description: Inhibitory activity against Toxoplasma gondii dihydrofolate reductase (in 50 uM dihydrofolic acid)
The target in experiment [5] is T4, Dihydrofolate reductase (Homo sapiens, UniProt P00374).
T4 sequence (P00374 whole entry): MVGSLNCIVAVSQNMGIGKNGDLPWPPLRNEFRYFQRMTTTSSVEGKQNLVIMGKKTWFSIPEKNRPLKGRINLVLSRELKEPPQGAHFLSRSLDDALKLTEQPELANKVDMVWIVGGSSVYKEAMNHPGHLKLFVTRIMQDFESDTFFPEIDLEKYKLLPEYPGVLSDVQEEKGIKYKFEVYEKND
Briefly: Inhibitory activity against recombinant human dihydrofolate reductase(in 50 uM dihydrofolic acid).

For experiment [6], the target named is T5, Dihydrofolate reductase (Escherichia coli, UniProt P0ABQ4).
T5 sequence (P0ABQ4 whole entry): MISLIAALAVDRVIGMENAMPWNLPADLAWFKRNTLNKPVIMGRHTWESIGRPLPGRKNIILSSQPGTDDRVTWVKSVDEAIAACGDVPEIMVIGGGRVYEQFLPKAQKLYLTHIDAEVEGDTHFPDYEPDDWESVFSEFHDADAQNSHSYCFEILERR
Briefly: Inhibitory activity against recombinant ec dihydrofolate reductase(in 50 uM dihydrofolic acid).

The target in experiment [7] is Dihydrofolate reductase (Lactobacillus casei, UniProt P00381). Briefly: Inhibitory activity against recombinant lc dihydrofolate reductase(in 50 uM dihydrofolic acid). Details: species or system Lacticaseibacillus casei.
Sequence of Dihydrofolate reductase (Lactobacillus casei, UniProt P00381) (P00381 whole entry): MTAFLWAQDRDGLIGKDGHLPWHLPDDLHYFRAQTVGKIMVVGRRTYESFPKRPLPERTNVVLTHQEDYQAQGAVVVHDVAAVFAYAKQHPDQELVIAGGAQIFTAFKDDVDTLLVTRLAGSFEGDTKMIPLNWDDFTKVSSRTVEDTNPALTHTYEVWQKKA

`COc1cc(C(C)Nc2cnc3nc(N)nc(N)c3c2)cc(OC)c1OC` (stereo unspecified): the IC50 was 9200 nM at Dihydrofolate reductase [1], 194 nM in experiment [2] and 1270 nM at Dihydrofolate reductase [3].

For `COc1ccc2c(CNc3cnc4nc(N)nc(N)c4c3)cccc2c1`, the IC50 was 15400 nM against Dihydrofolate reductase [1], 710 nM in experiment [2] and 370 nM on Dihydrofolate reductase [3].

Take `Nc1nc(N)c2cc(NCCc3ccccc3)cnc2n1`: the concentration for half-maximal inhibition (IC50) at Dihydrofolate reductase [1] amounted to 1940 nM; in experiment [2], 4450 nM; against Dihydrofolate reductase [3] it was 280 nM.

As to `COc1ccc(OC)c(CNc2cnc3nc(N)nc(N)c3c2)c1`, the IC50 is 500 nM in experiment [4] and 310 nM in experiment [2].

In the case of `CN(Cc1ccc(C(=O)NC(=O)[C@H](N)CCC(=O)O)cc1)c1cnc2nc(N)nc(N)c2c1`, the IC50 came to 650 nM on Dihydrofolate reductase [5], 13 nM at Dihydrofolate reductase [6] and 170 nM on Dihydrofolate reductase [7].

For `COc1ccc(CNc2cnc3nc(N)nc(N)c3c2)cc1OC`, the IC50 against Dihydrofolate reductase [1] is 4800 nM; in experiment [2], 730 nM; at Dihydrofolate reductase [3] it was 1500 nM.

For `COc1cc(CN(C)c2cnc3nc(N)nc(N)c3c2)cc(OC)c1OC`, the IC50 on Dihydrofolate reductase [1] stood at 61 nM; in experiment [2], 14 nM; against Dihydrofolate reductase [3], 33 nM.

Turning to `COc1cc(CN(C)c2cnc3nc(N)nc(N)c3c2)cc(OC)c1`, the IC50 at Dihydrofolate reductase [5] was determined as 2900 nM; in experiment [4] it was 29 nM; in experiment [2], 31 nM; against Dihydrofolate reductase [3] it was 72 nM.

In the case of `Nc1nc(N)c2cc(NCc3ccc(Oc4ccccc4)cc3)cnc2n1`, the IC50 is 24300 nM against Dihydrofolate reductase [1], 3700 nM in experiment [2] and 2900 nM against Dihydrofolate reductase [3].

Consider `Nc1nc(N)c2cc(NCc3cccc4ccccc34)cnc2n1`, for which the figures for the IC50 (at Dihydrofolate reductase [1]; in experiment [2]; against Dihydrofolate reductase [3]) were 3900 nM, 980 nM and 240 nM, respectively.

With `CCOc1cc(Cc2cnc(N)nc2N)cc(OCC)c1-n1cccc1` [EPIROPRIM], the IC50 in experiment [2] amounted to 470 nM; on Dihydrofolate reductase [3], 73000 nM.

As to `COc1ccc(OC)c(CN(C)c2cnc3nc(N)nc(N)c3c2)c1`, the half-inhibitory concentration (IC50) at Dihydrofolate reductase [5] was determined as 8500 nM; at Dihydrofolate reductase [6], 140 nM; on Dihydrofolate reductase [7], 5700 nM; on Dihydrofolate reductase [3], 57 nM.

As to `Nc1nc(N)c2cc(NCc3ccccc3)cnc2n1`, the results for the IC50 (on Dihydrofolate reductase [5]; in experiment [2]; at Dihydrofolate reductase [3]) were 6200 nM, 520 nM and 2100 nM, respectively.

On to `COc1ccc(CN(C)c2cnc3nc(N)nc(N)c3c2)c(OC)c1OC`, for which the IC50 against Dihydrofolate reductase [1] stood at 79 nM; at Dihydrofolate reductase [5] it was 530 nM; in experiment [4], 26 nM; in experiment [2] it was 26 nM; against Dihydrofolate reductase [3], 30 nM.

As to `COc1ccc(CNc2cnc3nc(N)nc(N)c3c2)c2ccccc12`, the IC50 is 8200 nM on Dihydrofolate reductase [1], 380 nM in experiment [2] and 430 nM on Dihydrofolate reductase [3].

As to `CN(Cc1ccccc1)c1cnc2nc(N)nc(N)c2c1`, the IC50 against Dihydrofolate reductase [1] amounted to 68 nM; at Dihydrofolate reductase [5], 700 nM; in experiment [4], 35 nM; in experiment [2], 32 nM; against Dihydrofolate reductase [3], 140 nM.

For `CN(CCc1ccccc1)c1cnc2nc(N)nc(N)c2c1`, the IC50 against Dihydrofolate reductase [1] came to 1800 nM; in experiment [2], 920 nM; on Dihydrofolate reductase [3] it was 1400 nM.

For the compound `COc1ccc(CNc2cnc3nc(N)nc(N)c3c2)c(OC)c1OC`, the IC50 was determined as 15300 nM against Dihydrofolate reductase [1], 670 nM in experiment [2] and 3240 nM on Dihydrofolate reductase [3].

Consider `COc1cc(OC)c(CNc2cnc3nc(N)nc(N)c3c2)c(OC)c1`, for which the figures for the IC50 (in experiment [2]; against Dihydrofolate reductase [3]) were 230 nM and 1200 nM, respectively.

Take `COc1cc(OC)c(OC)cc1CNc1cnc2nc(N)nc(N)c2c1`: the IC50 at Dihydrofolate reductase [1] is 5500 nM; in experiment [2] it was 480 nM; on Dihydrofolate reductase [3], 1100 nM.

In turn, `COc1cc(CNc2cnc3nc(N)nc(N)c3c2)cc(OC)c1` came in with an IC50 in experiment [2] of 1200 nM.

For `COc1cc(CNc2cnc3nc(N)nc(N)c3c2)cc(OC)c1OC`, the IC50 in experiment [4] is 1300 nM; in experiment [2] it was 350 nM.
